These results are taken from patent US12240855B2, “Pyrrolopyrazole derivative” (DAIICHI SANKYO COMPANY, LIMITED, priority 2019, dated 2025).

pIC50: −log10 of the molar value.

One experiment relates to HCT116 cells. In words: cells. To be noted: Homo sapiens, HCT-116, 72 h, read-out: Test Example 3 HCT116 GI50.
The test system of experiment [1] is PTDSS2 gene-disrupted (PTDSS2-KO) HCT116 cells. In words: cells. Conditions: Homo sapiens, HCT-116, 72 h, read-out: Test Example 3 PTDSS2-KO HCT116 GI50.
Method: McCoy's 5A medium containing 10% bovine serum was used as the culture medium for each cell. […] They were added to each well of 384-well plates at 40 nL/well using an Echo555 (Labcyte Inc.). […] On the day of compound addition (day 0) and 3 days after compound addition (day 3), 10 μL/well of CellTiter-Glo® 2.0 Assay (Promega, #G9242), which is a reagent for ATP measurement, was added to each well, and the amount of luminescence in each well was measured with EnVision. From the amount of luminescence on the day of compound addition (C0) and the amount of luminescence of the compound non-addition group (C3) and compound addition group (T3) after 3 days of culture, cell viability was calculated based on the following formula. Cell viability (%)=[(T3−C0)/(C3−C0)]×100
The next experiment concerns the target PSS1 (Homo sapiens, UniProt P48651). In words: biochemical.
Experiment [2] relates to PTDSS2-KO HCT116 cell-subcutaneous transplanted model. In words: Test Example 4: Antitumor activity on PTDSS2-KO HCT116 cell-subcutaneous transplanted model. To be noted: oral, QD × 13, test end date. The class given is in vivo, female BALB/c-nu/nu mice. The source says: HCT116 cell-subcutaneous transplanted model PTDSS2-KO HCT116 cells were transplanted to a right subcutaneous axillary portion of female BALB/c-nu/nu mice at a proportion of 1×10^7 cells/head, and when the tumor volume reached 100 to 300 mm^3 (estimated tumor volume (major axis×minor axis×minor axis/2)), mice were divided into groups of 6 or 5 mice each such that there was no difference between groups. The female BALB/c-nu/nu mice were purchased from CHARLES RIVER LABORATORIES JAPAN, INC. The compounds of Examples 58, 57, 53, 30, 42, 32, 34, 33, and 31 were orally administered from the day of grouping in the dosing schedule shown in Table 12 (twice daily, 11 successive days (BID×11), or once daily, 13 successive days (QD×13)). The tumor volume was measured until the next day of completion of the administration (test end date). 0.5% methylcellulose (MC) was administered to the vehicle control group as the vehicle.
TGI %=(1−TVt/TVc)×100 • TGI: Tumor growth suppression rate • TVt: Group mean tumor volume of compound administration group on test end date • TVc: Group mean tumor volume of vehicle control group on test end date

For a further experiment, the system named is NCI-N87 cells. In words: Test Example 5: Cell growth suppression activity 2 (NCI-N87). The class given is cell-based. To be noted: 168 h; NCI-N87 cells derived from human stomach cancer, 7 days of culture, ATP measurement (CellTiter-Glo 2.0). As to the method: NCI-N87 derived from human stomach cancer was used. […] NCI-N87 cells were purchased from ATCC. NCI-N87 cells were seeded into 96 well plates at 5,000 cells/50 μL/well (day −1). The compound of Example 42 was serially diluted and prepared (10 steps, 20 μM-6 nM) and added to each well of 96 well plates at 50 μL/well. […] Cell viability (%)=[(T7−C0)/(C7−C0)]×100
(ATP-based viability assays read luminescence as a measure of living cells.)

Another experiment has as its system ZR-75-1 cells. Put plainly: Test Example 6: Cell growth suppression activity 3 (ZR-75-1). The class given is cell-based. To be noted: 144 h; ZR-75-1 cells derived from human breast cancer, 6 days of culture, ATP measurement (CellTiter-Glo 2.0). The protocol:
ZR-75-1 cells derived from human breast cancer were used. […] ZR-75-1 cells were purchased from ATCC. ZR-75-1 cells were seeded into 96 well plates at 5,000 cells/50 μL/well (day −1). The compound of Example 42 was serially diluted and prepared (10 steps, 20 μM-6 nM) and added to each well of 96 well plates at 50 μL/well. […] Cell viability (%)=[(T6−C0)/(C6−C0)]×100

For a further experiment, the system named is Jeko-1 cells. Put plainly: Test Example 7: Cell growth suppression activity 4 (Jeko-1). It counts as cell-based. To be noted: 72 h; Jeko-1 cells derived from human mantle cell lymphoma, 3 days of culture, ATP measurement (CellTiter-Glo 2.0). As to the method:
Jeko-1 cells derived from human mantle cell lymphoma were used. […] Jeko-1 cells were purchased from ATCC. Jeko-1 cells were seeded into 96 well plates at 50,000 cells/50 μL/well (day 0). The compound of Example 42 was serially diluted and prepared (10 steps, 30 μM-3 nM) and added to each well of 96 well plates at 50 μL/well. […] Cell viability (%)=[(T3−C0)/(C3−C0)]×100

Experiment [3] has as its system PTDSS2-KO A375 cell-subcutaneous transplanted model. Put plainly: Test Example 8: Antitumor activity on PTDSS2-KO A375 cell-subcutaneous transplanted model. The class given is in vivo, female BALB/c-nu/nu mice. To be noted: orally, once daily for 10 successive days (QD×10), test end date. The source says:
PTDSS2-KO A375 cells were transplanted to a right subcutaneous axillary portion of female BALB/c-nu/nu mice at a proportion of 1×10^6 cells/head, and when the tumor volume reached 100 to 300 mm^3 (estimated tumor volume (major axis×minor axis×minor axis/2)), mice were divided into groups of 6 each such that there was no difference between groups. The female BALB/c-nu/nu mice were purchased from CHARLES RIVER LABORATORIES JAPAN, INC. The compound of Example 42 was orally administered from the day of grouping, once daily for 10 successive days (QD×10). The tumor volume was measured until the next day of completion of the administration (test end date). 0.5% methylcellulose (MC) was administered to the vehicle control group as the vehicle.
The antitumor activity on PTDSS2-KO A375 cell-subcutaneous transplanted model of Test Example 8 was calculated by the following formula on each test end date. TGI %=(1−TVt/TVc)×100 • TGI: Tumor growth suppression rate • TVt: Group mean tumor volume of compound administration group on test end date • TVc: Group mean tumor volume of vehicle control group on test end date

Regarding `O=C1c2[nH]nc(-c3cccc4[nH]c(=O)oc34)c2C(c2ccc(F)cc2)N1CC(F)(F)F` (single isomer, unassigned) [Example 8, 7-[4-(4-Fluorophenyl)-6-oxo-5-(2,2,2-trifluoroethyl)-1,4,5,6-tetrahydropyrrolo[3,4-c]pyrazol-3-yl]-1,3-benzoxazol-2(3H)-one (enantiomer)], the GI50 (commonly the concentration that inhibits growth by half) in the experiment with HCT116 cells is greater than 25 µM; in experiment [1] it was 1.1 µM.
With `CC(F)(F)CN1C(=O)c2[nH]nc(-c3cccc4[nH]c(=O)oc34)c2C1c1ccc(Oc2cc(C(F)(F)F)cc(C(F)(F)F)c2)cc1` (single isomer, unassigned; (+)) [(+)-7-[4-{4-[3,5-bis(trifluoromethyl)phenoxy]phenyl}-5-(2,2-difluoropropyl)-6-oxo-1,4,5,6-tetrahydropyrrolo[3,4-c]pyrazol-3-yl]-1,3-benzoxazol-2(3H)-one], the pIC50 (as a rule, the negative decadic logarithm of the IC50, by convention in mol/L) on PSS1 is less than 5.30.
Regarding `CC(F)(F)CN1C(=O)c2[nH]nc(-c3cccc4[nH]c(=O)oc34)c2C1c1ccc(Oc2ccc(OC(F)(F)F)c(C(F)(F)F)c2)cc1` (single isomer, unassigned; (-)) [Example 33, (−)-7-[5-(2,2-difluoropropyl)-6-oxo-4-{4-[4-(trifluoromethoxy)-3-(trifluoromethyl)phenoxy]phenyl}-1,4,5,6-tetrahydropyrrolo[3,4-c]pyrazol-3-yl]-1,3-benzoxazol-2(3H)-one], the results for the “TGI (%)” value in experiment [2] (10 mg/kg), in experiment [2] (20 mg/kg) and in experiment [2] (40 mg/kg) were 97%, 98% and 98%, respectively. Moreover, in experiment [1], the GI50 amounted to 0.014 µM.
In the case of `O=C1c2[nH]nc(-c3cccc4[nH]c(=O)oc34)c2C(c2cc(OC3CCOCC3)ccc2F)N1CC(F)(F)F` (stereo not shown) [Example 9, 7-[4-{2-Fluoro-5-[(oxan-4-yl)oxy]phenyl}-6-oxo-5-(2,2,2-trifluoroethyl)-1,4,5,6-tetrahydropyrrolo[3,4-c]pyrazol-3-yl]-1,3-benzoxazol-2(3H)-one], the GI50 is greater than 25 µM in the experiment with HCT116 cells and 0.7 µM in experiment [1].
The corresponding values for `O=C1c2[nH]nc(-c3cccc4[nH]c(=O)oc34)c2C(c2cc(Oc3ccccc3)ccc2F)N1Cc1ccccn1` (stereo not shown) [Example 13, 7-{4-(2-Fluoro-5-phenoxyphenyl)-6-oxo-5-[(pyridin-2-yl)methyl]-1,4,5,6-tetrahydropyrrolo[3,4-c]pyrazol-3-yl}-1,3-benzoxazol-2(3H)-one] are greater than 25 µM and 0.82 µM.
As to `CC(F)(F)CN1C(=O)c2[nH]nc(-c3cccc4[nH]c(=O)oc34)c2[C@@H]1c1ccc(Oc2cc(C(F)(F)F)cc(C(F)(F)F)c2)cc1` [Example 42, (−)-7-[4-{4-[3,5-bis(trifluoromethyl)phenoxy]phenyl}-5-(2,2-difluoropropyl)-6-oxo-1,4,5,6-tetrahydropyrrolo[3,4-c]pyrazol-3-yl]-1,3-benzoxazol-2(3H)-one], the “TGI (%)” value in experiment [2] (10 mg/kg) is on record as 97%; in experiment [2] (20 mg/kg) it was 98%; in experiment [2] (40 mg/kg), 99%; in experiment [3] (Dose 3 mg/kg), 47%; in experiment [3] (Dose 10 mg/kg), 100%; in experiment [3] (Dose 30 mg/kg), 100%. Moreover, the “TGI (%)” value in experiment [3] (Dose 100 mg/kg) came out at 100%. Besides, the GI50 in the experiment with NCI-N87 cells was 0.0074 µM; with ZR-75-1 cells, 2.9 µM; in the experiment on Jeko-1 cells, 0.417 µM; in the experiment on HCT116 cells, greater than 25 µM; in experiment [1], 0.014 µM. The pIC50 on PSS1 is 6.70.
Regarding `CC(F)(F)CN1C(=O)c2[nH]nc(-c3cccc4[nH]c(=O)oc34)c2C1c1ccnc(Oc2ccc(F)cc2)n1` (stereo not shown) [Example 73, 7-{5-(2,2-Difluoropropyl)-4-[2-(4-fluorophenoxy)pyrimidine-4-yl]-6-oxo-1,4,5,6-tetrahydropyrrolo[3,4-c]pyrazol-3-yl}-1,3-benzoxazol-2(3H)-one], the GI50 with HCT116 cells is 19 µM; in experiment [1], 0.89 µM.
For `CC(F)(F)CN1C(=O)c2[nH]nc(-c3cccc4[nH]c(=O)sc34)c2C1c1ccc(Oc2ccc(OC(F)(F)F)cc2)cc1` (stereo not shown) [Example 95, 7-[5-(2,2-Difluoropropyl)-6-oxo-4-{4-[4-(trifluoromethoxy)phenoxy]phenyl}-1,4,5,6-tetrahydropyrrolo[3,4-c]pyrazol-3-yl]-1,3-benzothiazol-2(3H)-one], in that order: 7.3 µM and 6.4 µM.
